# In patent US20060194259A1, “Method for isolating an allosteric effector of a receptor” (priority 2002, published 2006):
# Key:
# receptor EGFP-NK2R [1] = biological target: T1, receptor EGFP-NK2R (Homo sapiens, UniProt P21452); assay: cAMP production caused by NKA in HEK 293 cells expressing EGFP-NK2R; assay type: cell-based
# T1 sequence (P21452 1-398): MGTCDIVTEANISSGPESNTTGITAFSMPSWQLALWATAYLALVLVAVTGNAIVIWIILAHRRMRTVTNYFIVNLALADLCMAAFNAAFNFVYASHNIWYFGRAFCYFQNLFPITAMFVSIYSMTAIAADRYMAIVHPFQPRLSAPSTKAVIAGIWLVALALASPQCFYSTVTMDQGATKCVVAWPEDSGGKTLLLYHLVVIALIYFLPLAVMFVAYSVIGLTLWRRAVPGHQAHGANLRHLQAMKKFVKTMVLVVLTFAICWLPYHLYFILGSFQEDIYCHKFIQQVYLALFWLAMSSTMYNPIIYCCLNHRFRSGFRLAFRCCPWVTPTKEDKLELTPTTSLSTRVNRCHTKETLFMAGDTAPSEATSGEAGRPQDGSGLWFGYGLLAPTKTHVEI
# Method: (§1) 30 mm 6-well cell-culture dishes are treated with collagen then seeded with 50,000 cells expressing the receptor EGFP-NK2R. […] The quantity of cAMP produced (expressed in pmoles/well) is determined according to a radioimmunological process described in Gicquiaux et al. (2002).
# receptor EGFP-NK2R [2] = biological target: T2, receptor EGFP-NK2R (UniProt P16610); assay: as above; assay type: cell-based; set-up: 805 at 10 or 50 μM; NKA alone; fused on or other part: EGFP fused to the receptor; settings: read-out: inhibition constant KI of the maximum response of cAMP induced by the NKA; FIG. 9C
# T2 sequence (P16610 1-390): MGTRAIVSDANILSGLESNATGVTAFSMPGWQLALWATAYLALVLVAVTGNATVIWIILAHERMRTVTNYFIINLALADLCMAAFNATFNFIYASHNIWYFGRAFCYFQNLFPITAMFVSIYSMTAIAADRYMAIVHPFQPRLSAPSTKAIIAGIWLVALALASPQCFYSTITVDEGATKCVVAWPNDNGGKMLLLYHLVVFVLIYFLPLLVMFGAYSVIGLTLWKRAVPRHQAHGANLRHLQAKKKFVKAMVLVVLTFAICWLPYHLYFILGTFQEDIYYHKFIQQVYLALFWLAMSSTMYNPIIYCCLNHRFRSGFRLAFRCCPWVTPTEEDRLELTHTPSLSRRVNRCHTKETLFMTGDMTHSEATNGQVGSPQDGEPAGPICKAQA
# Method: as §1
# receptor EGFP-NK2R [3] = biological target: T2, receptor EGFP-NK2R; assay: Dissociation of NKA4-10 TR7 from EGFP-NK2R by fluorescence energy transfer; assay type: binding; set-up: % al (max): maximum value observed for the increase in amplitude of the rapid dissociation rate; ns = n; other: 20 nM of NK; % al (at 10 μM); other: compou; fused on or other part: EGFP fused to the receptor as FRET donor
# Method: The x-axis represents time in seconds and the y-axis represents fluorescence.
# In the presence of 10 μM of 805, an acceleration of the dissociation is observed characterized by a modification of the amplitudes of the rapid (88%) and slow (12%) dissociation stages.
# [4] = biological target: T3, wild-type human receptor NK2 (Homo sapiens, UniProt P21452); assay: Calcium response caused by neurokinin A in HEK 293 cells expressing NK2 receptor; assay type: cell-based; settings: 805 20 μM; neurokinin A 10 or 100 nM
# T3 construct: expressed in transfected cells; host or cells: HEK 293
# T3 sequence (P21452 1-398): T1 sequence (P21452 1-398)
# Method: The cells are put into suspension at a rate of 1,000,000 cells/ml in Hepes buffer (op. cit.) and arranged in a spectrofluorimeter cuvette. The excitation wavelength is fixed at 338 nm and the emission is recorded at 400 nm. The responses traced are the signals recorded at 400 nm.
# [5] = system: cells not expressing the EGFP-NK2R receptor; assay: Calcium response on cells not expressing the receptor; assay type: cell-based; set-up: key: ns: not significant; ?: uniterpretable
# receptor EGFP-NK2R [6] = biological target: T1, receptor EGFP-NK2R; assay: Reversion of the binding of NKA-Bo to EGFP-NK2R by fluorescence energy transfer; settings: read-out: % bond reversion (50 μM)
# Excerpt: (§2) The amplitude of each relaxation is then given by the adjustment of the experimental traces.
# receptor EGFP-NK2R [7] = biological target: T2, receptor EGFP-NK2R; assay: as above; set-up: % al (max): maximum value observed for the increase in amplitude of the rapid dissociation rate; ns = n; other: 20 nM of NK; % al (at 10 μM); other: compou; fused on or other part: EGFP fused to the receptor as FRET donor
# Excerpt: as §2
# receptor EGFP-NK2R [8] = biological target: T1, receptor EGFP-NK2R; assay: Calcium response caused by NKA 4-10 TR7 in HEK 293 cells expressing EGFP-NK2R (indo-1); assay type: cell-based; settings: 805 20 μM; NKA 4-10 TR7 106, 50.3, 26.5 and 10.6 nM
# Method: The cells are put into suspension at a rate of 500,000 cells/ml in Hepes buffer and arranged in a spectrofluorimeter cuvette. The excitation wavelength is fixed at 355 nm and the emission is recorded at […].
# receptor EGFP-NK2R [9] = biological target: T1, receptor EGFP-NK2R; assay: Calcium response caused by NKA/NKA-Bo in HEK 293 cells expressing EGFP-NK2R (indo-1); assay type: cell-based; settings: for time necessary to return to 50% of the maximum calcium response: 5 nM NKA, 91 seconds in the absence of 805
# Method: The calcium responses caused by the agonist NKA-Bo on cells expressing the receptor EGFP-NK2R are recorded after charging the cells with the calcium-sensitive fluorescent probe: indo-1, according to the protocol described in Vollmer et al. (1999). The cells are put into suspension at a rate of 500,000 cells/ml in Hepes buffer and arranged in a spectrofluorimeter cuvette. The excitation wavelength is fixed at 338 nm and the emission is recorded at 400 and 470 nm. The responses traced are the ratios of the signals 400/470.
structure (smiles),measurement,setting,value
"N#CCN(Cc1ccccc1)Cc1ccc2ccccc2c1 [compound 805, [benzyl(2-naphthylmethyl)amino]acetonitrile]","Rmax, maximum cAMP response to NKA relative to control",receptor EGFP-NK2R [1]; [805]=10 μM,0.7
same,"Rmax, maximum cAMP response to NKA relative to control",receptor EGFP-NK2R [1]; [805]=50 μM,0.3
same,Ki,receptor EGFP-NK2R [2],~6 µM
same,amplitude of the slow dissociation of NKA4-10 TR7,"receptor EGFP-NK2R [3]; 10 μM of 805, 10° C., 42% without 805",12%
same,amplitude of the rapid dissociation of NKA4-10 TR7,"receptor EGFP-NK2R [3]; 805 at 100 μM, approximately 40% in the absence of 805",up to 90%
same,EC50,"receptor EGFP-NK2R [3]; read-out: concentration which causes a 50% increase in the amplitude of the rapid dissociation of NKA4-10 TR7 (apparent affinity), 10° C.",~20 µM
same,effect on the calcium response caused by neurokinin A,[4],increases the amplitude of the response
same,Ca Rep.: ability to evoke a calcium response on cells not expressing the EGFP-NK2R receptor,[5]; Table 1,ns
same,Ca Rep.,[5]; Table 2,ns
same,inhibition at 50 µM,receptor EGFP-NK2R [6],9%
same,% bond reversion (at 10 μM),receptor EGFP-NK2R [7]; compound 10 μM,1 (10 μM) %
same,IC50,"receptor EGFP-NK2R [7]; read-out: IC50 (μM): concentration of compound for which a 50% reduction is observed in the binding of NKA-Bo, 20 nM of NKA-Bo, EGFP-NK2R receptor",> 500 µM
same,effect on the calcium response caused by NKA 4-10 TR7,receptor EGFP-NK2R [8],increases the amplitude of the response
same,time necessary to return to 50% of the maximum calcium response,receptor EGFP-NK2R [9]; 805 10 μM,105 s
same,effect on the calcium response caused by NKA,"receptor EGFP-NK2R [9]; 805 50 μM with 1, 5 and 1000 nM NKA",increases the duration of the calcium response
same,time necessary to return to 50% of the maximum calcium response,receptor EGFP-NK2R [9]; 805 50 μM,115 s
